Results reported in ChEMBL document CHEMBL1146272, “Isoindolone derivatives, a new class of 5-HT2C antagonists: synthesis and biological evaluation” (Bioorg Med Chem Lett, 2007).
Calls of active or inactive are those of the source. The rule behind the calls is not given here.

What was measured:
[1] = molecular target: T1, 5-hydroxytryptamine receptor 2B (Homo sapiens, UniProt P41595); assay: Agonist activity at 5HT2B receptor expressed in HEK293 cells assessed as intracellular calcium mobilisation up to 10 uM; type: functional, cell-based
[2] = molecular target: T2, 5-hydroxytryptamine receptor 2A (Homo sapiens, UniProt P28223); assay: Agonist activity at 5HT2A receptor expressed in HEK293 cells assessed as intracellular calcium mobilisation up to 10 uM; type: functional, cell-based
[3] = molecular target: T3, 5-hydroxytryptamine receptor 2C (Homo sapiens, UniProt P28335); assay: Displacement of [3H]mesulergine from 5HT2C receptor expressed in HEK293 cells; type: cell-based
T3 sequence (P28335 whole entry): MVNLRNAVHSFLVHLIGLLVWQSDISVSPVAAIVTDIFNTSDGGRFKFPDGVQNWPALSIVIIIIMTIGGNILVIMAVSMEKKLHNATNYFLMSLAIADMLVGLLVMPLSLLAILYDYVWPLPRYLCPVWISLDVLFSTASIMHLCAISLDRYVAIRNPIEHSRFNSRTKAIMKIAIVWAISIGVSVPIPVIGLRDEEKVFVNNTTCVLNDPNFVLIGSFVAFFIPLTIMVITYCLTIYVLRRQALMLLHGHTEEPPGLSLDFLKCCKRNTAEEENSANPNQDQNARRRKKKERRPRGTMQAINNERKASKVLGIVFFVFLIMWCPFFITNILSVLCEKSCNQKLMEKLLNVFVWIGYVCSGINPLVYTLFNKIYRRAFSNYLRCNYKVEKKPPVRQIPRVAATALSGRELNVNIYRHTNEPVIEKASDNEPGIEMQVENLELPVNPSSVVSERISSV

[4] = molecular target: T2, 5-hydroxytryptamine receptor 2A; assay: Displacement of [3H]ketanserin from 5HT2A receptor expressed in HEK293 cells; type: cell-based
[5] = molecular target: T4, 5-hydroxytryptamine receptor 2C (Homo sapiens) (UniProt P28335); assay: Agonist activity at 5HT2C receptor expressed in HEK293 cells assessed as intracellular calcium mobilisation up to 10 uM; type: functional, cell-based
T4 sequence (whole entry): T3 sequence (P28335 whole entry)

[6] = molecular target: T1, 5-hydroxytryptamine receptor 2B; assay: Displacement of [3H]5-HT from 5HT2B receptor expressed in HEK293 cells; type: cell-based
[7] = Volume of distribution in iv dosed rat; type: ADME, organism-based; details: in vivo, read-out: Vdss
[8] = Blood clearance in iv dosed rat; type: ADME, organism-based; details: whole blood
[9] = molecular target: T4, 5-hydroxytryptamine receptor 2C (Homo sapiens); assay: Antagonist activity at 5HT2C receptor expressed in HEK293 cells assessed as blockade of 5-hydroxytryptamine-induced intracellular calcium mobilisation; type: functional, cell-based
[10] = Oral bioavailability in po dosed rat; type: ADME, organism-based; details: in vivo

T1 sequence (P41595 whole entry): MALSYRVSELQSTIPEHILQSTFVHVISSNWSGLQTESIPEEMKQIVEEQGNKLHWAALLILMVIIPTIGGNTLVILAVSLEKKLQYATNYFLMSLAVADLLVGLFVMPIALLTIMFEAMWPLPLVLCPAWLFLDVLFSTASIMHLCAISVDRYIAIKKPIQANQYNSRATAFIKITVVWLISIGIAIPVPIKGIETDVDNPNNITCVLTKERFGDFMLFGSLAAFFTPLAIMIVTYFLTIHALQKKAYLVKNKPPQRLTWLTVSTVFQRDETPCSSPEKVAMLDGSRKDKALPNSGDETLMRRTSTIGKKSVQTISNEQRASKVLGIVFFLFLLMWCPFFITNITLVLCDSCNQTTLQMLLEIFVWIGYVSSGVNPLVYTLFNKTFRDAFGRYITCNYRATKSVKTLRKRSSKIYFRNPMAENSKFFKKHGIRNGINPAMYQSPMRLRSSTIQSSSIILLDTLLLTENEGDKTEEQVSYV
T2 sequence (P28223 whole entry): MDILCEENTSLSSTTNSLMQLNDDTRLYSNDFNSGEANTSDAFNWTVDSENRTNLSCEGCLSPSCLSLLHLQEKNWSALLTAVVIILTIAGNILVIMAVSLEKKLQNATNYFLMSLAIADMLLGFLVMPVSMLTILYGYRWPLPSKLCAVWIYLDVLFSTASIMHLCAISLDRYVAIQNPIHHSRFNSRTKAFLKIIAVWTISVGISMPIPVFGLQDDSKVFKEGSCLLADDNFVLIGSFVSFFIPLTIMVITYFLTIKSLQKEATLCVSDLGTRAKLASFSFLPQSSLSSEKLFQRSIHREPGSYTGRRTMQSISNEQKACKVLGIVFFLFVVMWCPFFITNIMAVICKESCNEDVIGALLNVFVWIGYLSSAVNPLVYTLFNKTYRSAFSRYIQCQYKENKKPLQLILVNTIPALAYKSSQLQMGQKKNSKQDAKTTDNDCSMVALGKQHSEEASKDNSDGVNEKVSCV

Row | Structure (SMILES) | Activity [1] | Activity [2] | Ki [3] | Ki [4] | Activity [5] | Ki [6] | Vd [7] | clearance [8] | pKb [9] | bioavailability [10] | Log Ki ([6]; hek293)
1 | COc1ccc(N2Cc3ccc(Cl)c(Cl)c3C2=O)cc1OCCN1CCC(C)CC1 | inactive | inactive | 1 nM | 501 nM | inactive | 100 nM |  |  |  |  | 
2 | COc1ccc(N2Cc3cc(Cl)cc(Cl)c3C2=O)cc1OCCN1CCOCC1 | inactive | inactive | 12.6 nM | > 7940 nM | inactive | > 1000 nM |  |  |  |  | 
3 | COc1ccc(N2Cc3cccc(Cl)c3C2=O)cc1OCCN1CCCCC1 | inactive | inactive | 3.98 nM | 1000 nM | inactive | 316 nM |  |  |  |  | 
4 | COc1ccc(N2Cc3cc(C)cc(C)c3C2=N)cc1OCCN1CCC(C)CC1 | inactive | inactive | 126 nM | > 3980 nM | inactive | > 3160 nM |  |  |  |  | 
5 | COc1ccc(N2Cc3cc(Cl)cc(Cl)c3C2=O)cc1OCCN1CCC(C)CC1 | inactive | inactive | 1.58 nM | 398 nM | inactive | 200 nM | 5.8 L/kg | 50 mL/min/kg | 8.8 |  | 
6 | COc1ccc(N2Cc3cc(Cl)ccc3C2=O)cc1OCCN1CCC(C)CC1 | inactive | inactive | 25.1 nM | > 1000 nM | inactive | > 1000 nM |  |  |  |  | 
7 | COc1ccc(N2Cc3c(F)ccc(C(F)(F)F)c3C2=O)cc1OCCN1CCC(C)CC1 | inactive | inactive | 6.31 nM | > 1000 nM | inactive | > 1000 nM | 1.9 L/kg | 48 mL/min/kg |  | 4% | 
8 | COc1ccc(N2Cc3cccc(OC)c3C2=O)cc1OCCN1CCCCC1 | inactive | inactive | 200 nM | > 6310 nM | inactive | > 7940 nM |  |  |  |  | 
9 | COc1ccc(N2Cc3c(c4cc(Cl)ccc4n3C)C2=O)cc1OCCN1CCC(C)CC1 | inactive | inactive |  |  | inactive |  |  |  |  |  | 
10 | COc1ccc(N2Cc3cccc(C)c3C2=O)cc1OCCN1CCC(C)CC1 | inactive | inactive | 2.51 nM | > 6310 nM | inactive | 200 nM |  |  |  |  | 
11 | COc1ccc(N2C(=O)c3c(Cl)cccc3C2C)cc1OCCN1CCC(C)CC1 (stereo unspecified) | inactive | inactive | 1.26 nM | > 1260 nM | inactive | 200 nM | 8.2 L/kg | 53 mL/min/kg |  |  | 
12 | COc1ccc(N2Cc3ccccc3C2=O)cc1OCCN1CCCCC1 | inactive | inactive | 50.1 nM | > 10000 nM | inactive | > 1580 nM |  |  |  |  | 
13 | COc1ccc(N2Cc3cc(Cl)cc(Cl)c3C2=O)cc1OCCN1CCCC(C)C1 (stereo unspecified) | inactive | inactive | 2.51 nM | > 1260 nM | inactive | 126 nM |  |  |  |  | 
14 | COc1ccc(N2Cc3cc(Cl)cc(Cl)c3C2=O)cc1OCCN1CCCCCC1 | inactive | inactive | 2.51 nM | 631 nM | inactive | 200 nM |  |  |  |  | 
15 | COc1ccc(N2Cc3cccc(F)c3C2=O)cc1OCCN1CCCCC1 | inactive | inactive | 79.4 nM | > 10000 nM | inactive | > 3160 nM |  |  |  |  | 
16 | COc1ccc(N2CC=C(c3ccc(Cl)c(Cl)c3)C2=O)cc1OCCN1CCC(C)CC1 | inactive | inactive |  |  | inactive |  |  |  |  |  | 
17 | CCOC(=O)c1ccc(N2Cc3ccccc3C2=O)cc1OCCN(CC)CC | inactive | inactive |  |  | inactive |  |  |  |  |  | 
18 | COc1ccc(N2Cc3cc(Cl)cc(Cl)c3C2=O)cc1OCCN1CCC(C)(C)CC1 | inactive | inactive | 2 nM | 398 nM | inactive | 251 nM |  |  |  |  | 

Row | Structure (SMILES) | Activity [1] | Activity [2] | Ki [3] | Ki [4] | Activity [5] | Ki [6] | Vd [7] | clearance [8] | pKb [9] | bioavailability [10] | Log Ki ([6]; hek293)
19 | COc1ccc(N2Cc3c(Cl)cccc3C2=O)cc1OCCN1CCC(C)CC1 | inactive | inactive | 126 nM | > 1580 nM | inactive |  |  |  |  |  | > -6.7
20 | COc1ccc(N2Cc3cc(Cl)cc(Cl)c3C2=O)cc1OCCN1[C@H](C)CCC[C@@H]1C | inactive | inactive | 6.31 nM | 316 nM | inactive | 126 nM |  |  |  |  | 
21 | COc1ccc(N2Cc3cc(F)cc(C(F)(F)F)c3C2=O)cc1OCCN1CCC(C)CC1 | inactive | inactive | 0.398 nM | 251 nM | inactive | 251 nM |  |  |  |  | 
22 | COc1ccc(N2Cc3cccc(C#N)c3C2=O)cc1OCCN1CCC(C)CC1 | inactive | inactive | 10 nM | > 3160 nM | inactive | > 794 nM |  |  |  |  | 
23 | COc1ccc(N2Cc3ccc(Cl)cc3C2=O)cc1OCCN1CCCCC1 | inactive | inactive | 15.8 nM | > 2510 nM | inactive | > 1580 nM |  |  | 7.2 |  | 
24 | COc1ccc(N2Cc3cc(Cl)c(Cl)c(C)c3C2=O)cc1OCCN1CCC(C)CC1 | inactive | inactive | 2.51 nM | 398 nM | inactive | 100 nM | 6.8 L/kg | 16 mL/min/kg |  | 43% | 
25 | COc1ccc(N2Cc3cccc(C(F)(F)F)c3C2=O)cc1OCCN1CCC(C)CC1 | inactive | inactive | 1.58 nM | 631 nM | inactive | 501 nM |  |  |  |  | 
26 | COc1ccc(N2Cc3ccc(Cl)cc3C2=O)cc1OCCN1CCC(C)CC1 | inactive | inactive | 20 nM | 794 nM | inactive | > 1000 nM |  |  |  |  | 
27 | COc1ccc(N2Cc3cc(Cl)ccc3C2=O)cc1OCCN1CCCCC1 | inactive | inactive | 50.1 nM | > 6310 nM | inactive | > 10000 nM |  |  | 6.9 |  | 
28 | COc1ccc(N2Cc3cccc(Br)c3C2=O)cc1OCCN1CCC(C)CC1 | inactive | inactive | 0.794 nM | 631 nM | inactive | 158 nM |  |  | 9.3 |  | 
29 | COc1ccc(N2Cc3c(Cl)cccc3C2=O)cc1OCCN1CCCCC1 | inactive | inactive | 251 nM | > 7940 nM | inactive | > 794 nM |  |  | 6 |  | 
30 | COc1ccc(N2Cc3cccc(Cl)c3C2=O)cc1OCCN1CCC(C)CC1 | inactive | inactive | 1.58 nM | 794 nM | inactive | 126 nM |  |  | 8.7 |  | 
31 | COc1ccc(N2Cc3cc(Cl)cc(Cl)c3C2=O)cc1OCCN1CCCCC1C (stereo unspecified) | inactive | inactive | 10 nM | > 3980 nM | inactive | > 2510 nM |  |  |  |  | 
32 | COc1ccc(N2Cc3c(F)c(F)cc(Cl)c3C2=O)cc1OCCN1CCC(C)CC1 | inactive | inactive | 2 nM | 501 nM | inactive | 126 nM |  |  |  |  | 
33 | COc1ccc(N2Cc3cc(Cl)c(C)c(Cl)c3C2=O)cc1OCCN1CCC(C)CC1 | inactive | inactive | 1.26 nM | 631 nM | inactive | 63.1 nM | 9.1 L/kg | 43 mL/min/kg |  | 24% | 
34 | COc1ccc(N2Cc3cc(Cl)c(Cl)cc3C2=O)cc1OCCN1CCC(C)CC1 | inactive | inactive | 5.01 nM | 501 nM | inactive | 200 nM | 8.5 L/kg | 16 mL/min/kg |  | 22% | 
35 | COc1ccc(N2Cc3cc(C)cc(C)c3C2=O)cc1OCCN1CCC(C)CC1 | inactive | inactive | 3.16 nM | 1260 nM | inactive | 316 nM | 7.8 L/kg | 59 mL/min/kg |  | 10% | 
